The target of this experiment is T1, human glutamate receptor GluR1-flip (Homo sapiens, UniProt P42261).
T1 construct: expressed in transfected cells; host or cells: Chinese Hamster Ovary (CHO) cells
Kind of experiment: Whole cell patch clamp on CHO cells expressing human GluR1-flip; glutamate-induced current desensitization. The experiment is classed as cell-based. The settings on record: 1 mM test compound co-applied with 10 mM L-glutamate after 30 seconds pre-incubation, hGluR1(i), whole cell voltage clamp. From the text: In this experiment we investigated the influence of the test compounds on the membrane currents when determined electrophysiologically on Chinese Hamster Ovary (CHO) cells capable of expressing the human glutamate receptor GluR1-flip, obtained essentially as described by Fletcher E J & Lodge D, Pharmacol. Ther. 1996 70 (1) 65-89, the current through the channels being recorded using patch clamp technique in whole cell voltage clamp mode.
Current responses were induced by applying L-glutamate at a saturating concentration of 10 mM, and the modulatory effect of the test compound was evaluated by co-applying the test compound and L-glutamate upon a 30 seconds pre-incubation period, and comparing with […].
Background: In patch-clamp work, channel activity is measured electrically.

T1 sequence (P42261 19-906 isoform P42261-2 limits assumed): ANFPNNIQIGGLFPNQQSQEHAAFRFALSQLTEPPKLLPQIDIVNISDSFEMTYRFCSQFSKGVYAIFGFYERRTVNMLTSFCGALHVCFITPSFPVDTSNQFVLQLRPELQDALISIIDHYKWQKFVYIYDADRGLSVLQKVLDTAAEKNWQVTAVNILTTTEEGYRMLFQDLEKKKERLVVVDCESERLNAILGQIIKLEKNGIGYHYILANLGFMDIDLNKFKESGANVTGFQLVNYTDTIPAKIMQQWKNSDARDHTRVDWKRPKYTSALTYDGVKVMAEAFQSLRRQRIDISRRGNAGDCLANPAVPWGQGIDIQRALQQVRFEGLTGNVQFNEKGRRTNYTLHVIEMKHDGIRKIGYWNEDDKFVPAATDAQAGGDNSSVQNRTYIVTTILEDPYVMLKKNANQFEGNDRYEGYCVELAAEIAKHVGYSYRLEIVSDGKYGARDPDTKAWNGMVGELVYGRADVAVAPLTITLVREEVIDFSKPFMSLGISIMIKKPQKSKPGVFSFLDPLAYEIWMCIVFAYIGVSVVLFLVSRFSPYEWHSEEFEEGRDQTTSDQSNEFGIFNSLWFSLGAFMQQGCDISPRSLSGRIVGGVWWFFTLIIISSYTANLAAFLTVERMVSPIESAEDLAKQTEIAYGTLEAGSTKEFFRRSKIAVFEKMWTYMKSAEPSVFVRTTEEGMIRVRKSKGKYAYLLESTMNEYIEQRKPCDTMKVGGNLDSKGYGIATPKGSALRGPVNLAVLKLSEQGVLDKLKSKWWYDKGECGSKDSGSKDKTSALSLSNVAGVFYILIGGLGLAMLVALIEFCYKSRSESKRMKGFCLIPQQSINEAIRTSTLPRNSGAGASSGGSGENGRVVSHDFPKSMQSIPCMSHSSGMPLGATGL

With `CC1CCCN(C(=O)c2ccc3nccnc3c2)C1` (racemic) [Compound A4, (±)-(3-Methyl-piperidin-1-yl)-guinoxalin-6-yl-methanone], the degree of desensitization is listed as 95.2+/−0.2%. Next, `O=C(c1ccc2nccnc2c1)N1CCCCC1` [Reference compound, Piperidin-1-yl-quinoxalin-6-yl-methanone]: 98.0+/−0.8%.

The record behind these values is US20090286797A1, “Novel Quinoxaline Derivatives and Their Medical Use” (priority 2005, published 2009).
